Columns and labels:
Pituitary cells = experiment: Pituitary Cell Culture Assay for Growth Hormone Secretion; assay type: cell-based, rat (male Sprague-Dawley); conditions: 0.25 h, read-out: GH secretion EC50; heading: GH secretion EC50; rat anterior pituitary cells, 15 min at 37° C.; Examples Part 1
Source text: Thirty-two 250 g male Sprague-Dawley rats were used for each assay. The animals were killed by decapitation and anterior pituitaries were removed and placed into ice cold culture medium. The pituitaries were sectioned into eighths and enzymatically digested using trypsin (Sigma Chemical) to weaken connective tissue. Pituitary cells were dispersed by mechanical agitation, collected, pooled and then seeded into 24-well plates (300,000 cells/well). After 4 days of culture, the cells formed an even monolayer. Cells were then washed with medium and challenged to secrete GH by the addition of GH secretagogues to the medium. After 15 min at 37° C., the medium was removed and stored frozen until radioimmunoassays for rat GH were performed. Doses of secretagogue were added in quadruplicate. Compounds disclosed herein are active in the assay as described. Both EC50 and efficacy values were calculated by the 4-parameter logistic equation. Such values were pooled and represented as mean +/- standard error, when appropriate.

heart failure = conditions: cited from earlier work

| SMILES | EC50 (Pituitary cells) [µM] | mortality in patients (heart failure) |
| --- | --- | --- |
| COC(=O)[C@@H]1CCCN1C(=O)C(c1ccccc1)n1cnc(NC(=O)[C@H](COCc2ccccc2)NC(=O)C(C)(C)N)c1 (stereo partly drawn) [Example 8] | 2.39 |  |
| COc1ccccc1OCCNCC(O)COc1cccc2[nH]c3ccccc3c12 (stereo not drawn) [Carvedilol] |  | dramatic reductions in mortality in patients |
| COC(=O)[C@@H]1CCCN1C(=O)C(c1ccccc1)n1cnc(NC(=O)[C@@H](COCc2ccccc2)NC(=O)C(C)(C)N)c1 (stereo partly drawn) [Example 6] | 5.53 |  |
